Measurements from US11312712B2, “Azabenzimidazoles and their use as AMPA receptor modulators” (Janssen Pharmaceutica NV, priority 2015, dated 2022).

Target: GluA1o-γ8 (GRIA1o-CACNG8 fusion construct) (Homo sapiens (Human), UniProt P42261+Q8WXS5)
Assay: Calcium flux assay (FLIPR), inhibition of TARP γ8 dependent AMPA receptor activity
Format: cell-based
Conditions: GluA1o-γ8 (GRIA1o-CACNG8 fusion) in HEK293 cells, calcium flux after 15 μM glutamate
Outline: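 HEK293 cells stably expressing a 1:1 GRIA1o–CACNG8 fusion were loaded with Calcium-5/6 dye plus compound in pH 7.4 HEPES-buffered saline. FLIPR calcium flux after 15 μM glutamate was normalized to untreated and 10 μM CP465022 controls, and a four-parameter logistic fit gave pIC50.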

GluA1o-γ8 (GRIA1o-CACNG8 fusion construct), sequence (P42261 other isoform, or with tags, fused parts or gaps): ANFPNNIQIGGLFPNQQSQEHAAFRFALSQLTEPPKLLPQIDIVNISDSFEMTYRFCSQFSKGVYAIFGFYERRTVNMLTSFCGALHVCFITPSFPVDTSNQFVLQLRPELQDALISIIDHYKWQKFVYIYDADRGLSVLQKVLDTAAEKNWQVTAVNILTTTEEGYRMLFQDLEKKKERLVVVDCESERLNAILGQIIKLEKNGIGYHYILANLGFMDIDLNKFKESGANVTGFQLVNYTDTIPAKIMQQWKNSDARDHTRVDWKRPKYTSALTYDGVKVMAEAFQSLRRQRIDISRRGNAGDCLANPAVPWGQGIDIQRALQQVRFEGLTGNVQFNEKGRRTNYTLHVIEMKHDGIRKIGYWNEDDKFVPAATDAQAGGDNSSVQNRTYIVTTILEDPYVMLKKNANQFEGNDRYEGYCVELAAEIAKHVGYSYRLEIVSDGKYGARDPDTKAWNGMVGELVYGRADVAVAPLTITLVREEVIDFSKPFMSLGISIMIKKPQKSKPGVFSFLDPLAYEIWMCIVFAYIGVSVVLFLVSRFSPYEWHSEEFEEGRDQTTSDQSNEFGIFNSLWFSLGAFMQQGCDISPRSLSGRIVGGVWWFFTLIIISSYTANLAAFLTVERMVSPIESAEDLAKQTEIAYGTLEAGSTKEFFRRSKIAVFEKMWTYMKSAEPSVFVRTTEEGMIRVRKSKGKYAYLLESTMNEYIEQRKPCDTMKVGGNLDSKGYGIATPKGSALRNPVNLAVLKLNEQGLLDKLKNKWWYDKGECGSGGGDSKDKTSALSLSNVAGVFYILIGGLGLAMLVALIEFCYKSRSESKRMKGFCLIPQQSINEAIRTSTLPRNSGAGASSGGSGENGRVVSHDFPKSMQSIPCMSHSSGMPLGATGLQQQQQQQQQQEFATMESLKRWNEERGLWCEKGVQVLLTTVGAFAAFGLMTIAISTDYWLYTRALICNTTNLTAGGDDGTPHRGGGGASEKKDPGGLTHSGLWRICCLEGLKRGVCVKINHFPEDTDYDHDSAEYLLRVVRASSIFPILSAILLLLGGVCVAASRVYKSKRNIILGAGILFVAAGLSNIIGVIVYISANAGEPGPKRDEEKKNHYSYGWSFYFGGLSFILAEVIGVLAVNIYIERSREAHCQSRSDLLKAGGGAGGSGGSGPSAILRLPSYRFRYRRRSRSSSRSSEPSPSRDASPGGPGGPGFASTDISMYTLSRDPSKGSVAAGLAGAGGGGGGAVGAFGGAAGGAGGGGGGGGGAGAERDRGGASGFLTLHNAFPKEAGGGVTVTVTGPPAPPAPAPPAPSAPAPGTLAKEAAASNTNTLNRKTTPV

Structure (SMILES)	IC50 [nM]
O=c1[nH]c2ccc(-n3c(C(F)F)nc4ccc(C(F)(F)F)nc43)cc2s1 [Example 234, 6-[2-(Difluoromethyl)-5-(trifluoromethyl)imidazo[4,5-b]pyridin-3-yl]-3H-1,3-benzothiazol-2-one]	0.0794
O=c1[nH]c2ccc(-n3c(C(F)F)nc4ccc(C(F)(F)F)nc43)cc2o1 [Example 235, 6-[2-(Difluoromethyl)-5-(trifluoromethyl)imidazo[4,5-b]pyridin-3-yl]-3H-1,3-benzoxazol-2-one]	63.1
O=c1[nH]c2ccc(-n3c(C(F)(F)F)nc4ccc(C(F)(F)F)nc43)cc2o1 [Example 236, 6-[2,5-Bis(trifluoromethyl)imidazo[4,5-b]pyridin-3-yl]-3H-1,3-benzoxazol-2-one]	6.31
Fc1n[nH]c2ccc(-n3c(C(F)(F)F)nc4ccc(C(F)(F)F)nc43)cc12 [Example 237, 3-(3-Fluoro-1H-indazol-5-yl)-2,5-bis(trifluoromethyl)imidazo[4,5-b]pyridine]	2.51
FC(F)c1ccc2nc(C(F)(F)F)n(-c3ccc4[nH]ncc4c3)c2n1 [Example 238, 5-(Difluoromethyl)-3-(1H-indazol-5-yl)-2-(trifluoromethyl)imidazo[4,5-b]pyridine]	0.398
COc1nc2ccc(C(F)(F)F)nc2n1-c1ccc2[nH]c(=O)sc2c1 [Example 239, 6-[2-Methoxy-5-(trifluoromethyl)imidazo[4,5-b]pyridin-3-yl]-3H-1,3-benzothiazol-2-one]	2
CCOc1nc2ccc(C(F)(F)F)nc2n1-c1ccc2[nH]c(=O)sc2c1 [Example 240, 6-[2-Ethoxy-5-(trifluoromethyl)imidazo[4,5-b]pyridin-3-yl]-3H-1,3-benzothiazol-2-one]	1
COc1nc2ccc(C(F)(F)F)nc2n1-c1cc(C)c2[nH]ncc2c1 [Example 241, 2-Methoxy-3-(7-methyl-1H-indazol-5-yl)-5-(trifluoromethyl)imidazo[4,5-b]pyridine]	0.398
CCOc1nc2ccc(C(F)(F)F)nc2n1-c1cc(C)c2[nH]ncc2c1 [Example 242, 2-Ethoxy-3-(7-methyl-1H-indazol-5-yl)-5-(trifluoromethyl)imidazo[4,5-b]pyridine]	0.398
CCOc1nc2ccc(C(F)(F)F)nc2n1-c1ccc2c(c1)CC(=O)N2 [Example 243, 5-[2-Ethoxy-5-(trifluoromethyl)imidazo[4,5-b]pyridin-3-yl]indolin-2-one]	15.8
COc1nc2ccc(C(F)(F)F)nc2n1-c1ccc2c(c1)CC(=O)N2 [Example 244, 5-[2-Methoxy-5-(trifluoromethyl)imidazo[4,5-b]pyridin-3-yl]indolin-2-one]	39.8
CS(=O)(=O)Cc1nc2ccc(C(F)(F)F)nc2n1-c1ccc2[nH]ncc2c1 [Example 245, 3-(1H-indazol-5-yl)-2-(methylsulfonylmethyl)-5-(trifluoromethyl)imidazo[4,5-b]pyridine]	316
Cc1cc(-n2c3nc(C(F)(F)F)ccc3nc2[C@H]2C[C@@H](F)C2)cc2cn[nH]c12 [Example 246, 2-(3-Fluorocyclobutyl)-3-(7-methyl-1H-indazol-5-yl)-5-(trifluoromethyl)imidazo[4,5-b]pyridine]	0.126
Cc1cc(-n2c3nc(C(F)(F)F)ccc3nc2[C@H]2C[C@H](F)C2)cc2cn[nH]c12 [Example 247, 2-(3-Fluorocyclobutyl)-3-(7-methyl-1H-indazol-5-yl)-5-(trifluoromethyl)imidazo[4,5-b]pyridine]	0.0631
FC(F)(F)c1ccc2nc([C@H]3C[C@@H](F)C3)n(-c3cc(Cl)c4[nH]ncc4c3)c2n1 [Example 248, 3-(7-Chloro-1H-indazol-5-yl)-2-(3-fluorocyclobutyl)-5-(trifluoromethyl)imidazo[4,5-b]pyridine]	0.158
Cc1ccc2nc([C@H]3C[C@H](F)C3)n(-c3cc(Cl)c4[nH]ncc4c3)c2n1 [Example 249, 3-(7-Chloro-1H-indazol-5-yl)-2-(3-fluorocyclobutyl)-5-methyl-imidazo[4,5-b]pyridine]	0.501
FC(F)(F)c1ccc2nc([C@H]3C[C@H](F)C3)n(-c3cc(Cl)c4[nH]ncc4c3)c2n1 [Example 250, 3-(7-Chloro-1H-indazol-5-yl)-2-(3-fluorocyclobutyl)-5-(trifluoromethyl)imidazo[4,5-b]pyridine]	0.0316
COC(C)(C)c1nc2ccc(C(F)(F)F)nc2n1-c1cc(C)c2[nH]ncc2c1 [Example 251, 2-(1-Methoxy-1-methyl-ethyl)-3-(7-methyl-1H-indazol-5-yl)-5-(trifluoromethyl)imidazo[4,5-b]pyridine]	2.51
Cc1cc(-n2c(C(C)(F)F)nc3ccc(C(F)(F)F)nc32)cc2cn[nH]c12 [Example 252, 2-(1,1-Difluoroethyl)-3-(7-methyl-1H-indazol-5-yl)-5-(trifluoromethyl)imidazo[4,5-b]pyridine]	0.158

Structure (SMILES)	IC50 [nM]
Cc1cc(-n2c(C(C)(C)F)nc3ccc(C(F)(F)F)nc32)cc2cn[nH]c12 [Example 253, 2-(1-Fluoro-1-methyl-ethyl)-3-(7-methyl-1H-indazol-5-yl)-5-(trifluoromethyl)imidazo[4,5-b]pyridine]	0.2
CC(C)(F)c1nc2ccc(C(F)(F)F)nc2n1-c1cc(Cl)c2[nH]ncc2c1 [Example 254, 3-(7-Chloro-1H-indazol-5-yl)-2-(1-fluoro-1-methyl-ethyl)-5-(trifluoromethyl)imidazo[4,5-b]pyridine]	0.0631
Cc1cc(-n2c(C3CC3)nc3ccc(C(F)(F)F)nc32)cc2cn[nH]c12 [Example 255, 2-Cyclopropyl-3-(7-methyl-1H-indazol-5-yl)-5-(trifluoromethyl)imidazo[4,5-b]pyridine]	0.0316
FC(F)(F)c1ccc2nc(C3(F)CC3)n(-c3cc(Cl)c4[nH]ncc4c3)c2n1 [Example 258, 3-(7-Chloro-1H-indazol-5-yl)-2-(1-fluorocyclopropyl)-5-(trifluoromethyl)imidazo[4,5-b]pyridine]	0.0631
Cc1cc(-n2c(C3(F)CC3)nc3ccc(C(F)(F)F)nc32)cc2cn[nH]c12 [Example 259, 2-(1-Fluorocyclopropyl)-3-(7-methyl-1H-indazol-5-yl)-5-(trifluoromethyl)imidazo[4,5-b]pyridine]	0.0794
Cc1cc(-n2c(-c3ccnc(F)c3)nc3ccc(C(F)F)nc32)cc2cn[nH]c12 [Example 263, 5-(Difluoromethyl)-2-(2-fluoro-4-pyridyl)-3-(7-methyl-1H-indazol-5-yl)imidazo[4,5-b]pyridine]	0.158
Fc1cc(-c2nc3ccc(C(F)F)nc3n2-c2cc(Cl)c3[nH]ncc3c2)ccn1 [Example 264, 3-(7-Chloro-1H-indazol-5-yl)-5-(difluoromethyl)-2-(2-fluoro-4-pyridyl)imidazo[4,5-b]pyridine]	0.1
FC(F)(F)c1ccc2nc(C(F)(F)F)n(-c3cc(Cl)c4cn[nH]c4c3)c2n1 [Example 265, 3-(4-Chloro-1H-indazol-6-yl)-2,5-bis(trifluoromethyl)imidazo[4,5-b]pyridine]	126
CC(F)(F)c1nc2ccc(C(F)(F)F)nc2n1-c1ccc2[nH]c(=O)sc2c1 [Example 266, 6-[2-(1,1-Difluoroethyl)-5-(trifluoromethyl)imidazo[4,5-b]pyridin-3-yl]-3H-1,3-benzothiazol-2-one]	0.1
CC(F)(F)c1nc2ccc(C(F)(F)F)nc2n1-c1cc(Cl)c2[nH]ncc2c1 [Example 267, 3-(7-Chloro-1H-indazol-5-yl)-2-(1,1-difluoroethyl)-5-(trifluoromethyl)imidazo[4,5-b]pyridine]	0.0158
Cc1ccc2nc(C(F)(F)F)n(-c3cc(Cl)c4[nH]ncc4c3)c2n1 [Example 268, 3-(7-Chloro-1H-indazol-5-yl)-5-methyl-2-(trifluoromethyl)imidazo[4,5-b]pyridine]	0.0631
CC(C)c1nc2ccc(C(F)F)nc2n1-c1cc(Cl)c2[nH]ncc2c1 [Example 269, 3-(7-Chloro-1H-indazol-5-yl)-5-(difluoromethyl)-2-isopropyl-imidazo[4,5-b]pyridine]	0.0316
FC(F)(F)c1ccc2nc(C(F)(F)F)n(-c3cc(Cl)c4[nH]ncc4c3)c2n1 [Example 270, 3-(7-Chloro-1H-indazol-5-yl)-2,5-bis(trifluoromethyl)imidazo[4,5-b]pyridine]	0.02
O=C1Cc2cc(-n3c(C(F)(F)F)nc4ccc(C(F)(F)F)nc43)cc(Cl)c2N1 [Example 271, 5-[2,5-Bis(trifluoromethyl)imidazo[4,5-b]pyridin-3-yl]-7-chloro-indolin-2-one]	0.2
O=C1Cc2cc(-n3c(C(F)F)nc4ccc(C(F)(F)F)nc43)cc(Cl)c2N1 [Example 272, 7-Chloro-5-[2-(difluoromethyl)-5-(trifluoromethyl)imidazo[4,5-b]pyridin-3-yl]indolin-2-one]	0.2
Cc1cc(-n2c(C(C)C)nc3ccc(C(F)F)nc32)cc2cn[nH]c12 [Example 273, 5-(Difluoromethyl)-2-isopropyl-3-(7-methyl-1H-indazol-5-yl)imidazo[4,5-b]pyridine]	0.0631
Cc1nc2ccc(C(F)F)nc2n1-c1cc(Cl)c2[nH]ncc2c1 [Example 274, 3-(7-Chloro-1H-indazol-5-yl)-5-(difluoromethyl)-2-methyl-imidazo[4,5-b]pyridine]	0.316
Cc1cc(-n2c(C(F)(F)F)nc3ccc(C(F)(F)F)nc32)cc2c1NC(=O)C2 [Example 275, 5-[2,5-Bis(trifluoromethyl)imidazo[4,5-b]pyridin-3-yl]-7-methyl-indolin-2-one]	0.126
Cc1cc(-n2c(C(C)(F)F)nc3ccc(C(F)(F)F)nc32)cc2c1NC(=O)C2 [Example 276, 5-[2-(1,1-Difluoroethyl)-5-(trifluoromethyl)imidazo[4,5-b]pyridin-3-yl]-7-methyl-indolin-2-one]	0.2
